Test results: patent publication US11814444B2, “Cyclic polypeptides for PCSK9 inhibition” (Ra Pharmaceuticals, Inc., priority 2018, dated 2023)
Numbered stars: 1 amine (or outer) side, 2 acyl side, 3 side chain; on linkers, the order of the positions; unused ones are H or OH. Bridge positions count the residues as written; N and C are the ends. Square brackets hold non-standard residues; d marks the D form. Peptide text beside a SMILES is read from it. Ala(1H-tetrazol-5-yl) = N[C@@H](Cc1nnn[nH]1)C(=O)O; Phe(4-CF3) = N[C@@H](Cc1ccc(C(F)(F)F)cc1)C(=O)O; Trp(5-F) = N[C@@H](Cc1c[nH]c2ccc(F)cc12)C(=O)O; Trp(7-aza) = N[C@@H](Cc1c[nH]c2ncccc12)C(=O)O; X8 = O=C([C@H](Cc1ccc2[nH]ncc2c1)N[*:1])[*:2]; Phe(4-F) = N[C@@H](Cc1ccc(F)cc1)C(=O)O; mXylylene = c1cc(C[*:1])cc(C[*:2])c1; 4Pal = N[C@@H](Cc1ccncc1)C(=O)O; Tle = CC(C)(C)[C@H](N)C(=O)O; αMeV = CC(C)[C@](C)(N)C(=O)O; Dpg = CCCC(N)(CCC)C(=O)O; Iva = CC[C@](C)(N)C(=O)O; Ac5c = NC1(C(=O)O)CCCC1; Nva = CCC[C@H](N)C(=O)O; Mpa = O=C(O)CCS

Assays:
PCSK9 = PCSK9 (Homo sapiens, UniProt Q8NBP7); assay: PCSK9 Alexa FRET Standard assay (displacement of AlexaFluor647 tagged cyclic peptide Reagent A); assay type: binding; details: 0.5 nM PCSK9, 20 nM AF cyclic peptide Reagent A
Method: A solution containing 1 nM biotinylated PCSK9+2.5 nM Lance Streptavidin Europium (Strep-Eu) was made in 50 mM HEPES pH 7.4, 0.15 M NaCl, 5 mM CaCl2), 0.01% BSA, and 0.01% Surfactant P20. A separate solution containing 40 nM of the AlexaFluor tagged cyclic peptide was made in the same buffer system. An Echo was used to transfer 0.750 ul of compound to an assay plate followed by the addition of 15 ul of PCSK9+Stept-Eu and 15 ul of AF peptide. The final assay volume was 30.750 ul containing 0.5 nM PCSK9, 1.25 nM Strep-Eu, and 20 nM AF cyclic peptide. The reaction was incubated at room temperature for at least two hours prior to fluorescence measurements using an Envision Multilabel Reader. IC50 values were determined by fitting data to a sigmoidal dose-response curve using nonlinear regression. Ki was then calculated from the IC50 and the KD of AF cyclic peptide. Counts (B-counts) of the europium-labeled PCSK9 were followed to observe if compounds were […]. A fall off of the B-counts likely indicated a false positive of inhibition. Data from this procedure was reported as “A=‘numerical value’ (nanomolar)”

[1] = target: human PCSK9 / human LDLR EGFa domain interaction (Homo sapiens, UniProt Q8NBP7); assay: TR-FRET assay of inhibition of the PCSK9-LDLR protein-protein interaction; assay type: binding; details: 20 nM avitag-biotinylated human PCSK9, 20 nM his-tagged human LDLR EGFa domain, 2 hours, room temperature
Outline: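 Half-maximal inhibitory concentrations came from 4-parameter fits of dose-response data. Proteins: biotinylated PCSK9, His-tagged LDLR EGFa, 20 nM each; labels 5 nM; 2 h, room temperature; buffer 50 mM HEPES, 150 mM NaCl, 5 mM CaCl2.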

Sequence of human PCSK9 / human LDLR EGFa domain interaction (Q8NBP7 153-692): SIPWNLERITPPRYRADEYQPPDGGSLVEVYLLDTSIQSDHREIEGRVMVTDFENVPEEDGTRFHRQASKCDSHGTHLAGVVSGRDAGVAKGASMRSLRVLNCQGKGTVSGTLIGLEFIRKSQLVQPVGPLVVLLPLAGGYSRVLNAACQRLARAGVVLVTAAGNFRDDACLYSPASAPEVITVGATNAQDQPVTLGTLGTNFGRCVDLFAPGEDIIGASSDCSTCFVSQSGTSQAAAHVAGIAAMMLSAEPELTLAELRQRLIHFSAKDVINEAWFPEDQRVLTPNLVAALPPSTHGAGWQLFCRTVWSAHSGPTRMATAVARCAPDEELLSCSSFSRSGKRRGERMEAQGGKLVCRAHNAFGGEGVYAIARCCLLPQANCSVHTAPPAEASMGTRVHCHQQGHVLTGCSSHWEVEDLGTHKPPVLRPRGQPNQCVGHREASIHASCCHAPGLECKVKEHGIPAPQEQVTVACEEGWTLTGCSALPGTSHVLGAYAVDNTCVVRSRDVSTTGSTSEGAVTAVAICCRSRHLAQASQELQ
Sequence of human PCSK9 / human LDLR EGFa domain interaction (Q8NBP7 31-152 partner limits assumed): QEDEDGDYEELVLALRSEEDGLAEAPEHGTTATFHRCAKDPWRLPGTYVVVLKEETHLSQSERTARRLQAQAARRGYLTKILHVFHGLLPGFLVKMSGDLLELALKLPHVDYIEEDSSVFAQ
Sequence of PCSK9 (Q8NBP7 153-692): as the sequence (Q8NBP7 153-692) above

Row | IC50 (PCSK9) [nM] | IC50 [1] [nM] | Structure (SMILES)
1 | 1000 to 21000 | 100 to 1000 | CCC[C@@H]1NC(=O)[C@H](Cc2c[nH]c3ncccc23)NC(=O)[C@H]([C@@H](C)O)NC(=O)[C@H](Cc2c[nH]cn2)NC(=O)[C@H](Cc2ccc(O)cc2)NC(=O)[C@H](C(C)(C)C)NC(=O)CCSCc2cccc(c2)CSC[C@@H](C(N)=O)NC(=O)[C@H]([C@@H](C)O)NC(=O)[C@H](CCC)NC(=O)[C@H](Cc2ccc(O)cc2)NC(=O)[C@H](Cc2nnn[nH]2)NC1=O [Compound 253] ([Mpa][Tle]YHT[Trp(7-aza)][Nva][Ala(1H-tetrazol-5-yl)]Y[Nva]TC-NH2; linker 1-12 via mXylylene)
2 | 1000 to 21000 | 1000 to 21000 | CCC[C@@H]1NC(=O)[C@H](Cc2c[nH]c3ncccc23)NC(=O)[C@H]([C@@H](C)O)NC(=O)[C@H](Cc2c[nH]cn2)NC(=O)[C@H](Cc2ccc(O)cc2)NC(=O)[C@H](C(C)(C)C)NC(=O)CCSCc2cccc(c2)CSC[C@@H](C(N)=O)NC(=O)[C@H]([C@@H](C)O)NC(=O)[C@H](CCC)NC(=O)[C@H](Cc2c[nH]c3ccc(F)cc23)NC(=O)[C@H](CCC(=O)O)NC1=O [Compound 261] ([Mpa][Tle]YHT[Trp(7-aza)][Nva]E[Trp(5-F)][Nva]TC-NH2; linker 1-12 via mXylylene)
3 | 1 to 100 | 1 to 100 | CC(=O)N[C@H]1CSCc2cccc(c2)CSC[C@H](C(N)=O)NC(=O)[C@H]([C@@H](C)O)NC(=O)[C@](C)(C(C)C)NC(=O)[C@H](Cc2ccc(O)cc2)NC(=O)[C@H](C)NC(=O)C2(CCCC2)NC(=O)[C@H](Cc2c[nH]c3ncccc23)NC(=O)[C@H]([C@@H](C)O)NC(=O)[C@@H]2CCCN2C(=O)[C@H](Cc2ccc(O)cc2)NC(=O)[C@H](C(C)(C)C)NC1=O [Compound 186] (Ac-C[Tle]YPT[Trp(7-aza)][Ac5c]AY[αMeV]T[dC]-NH2; linker 1-12 via mXylylene)
4 | 1 to 100 | 100 to 1000 | CC(=O)N[C@H]1CSCc2cccc(c2)CSC[C@@H](C(N)=O)NC(=O)[C@H]([C@@H](C)O)NC(=O)[C@](C)(C(C)C)NC(=O)[C@H](Cc2ccc(O)cc2)NC(=O)[C@H](C)NC(=O)C2(CCCC2)NC(=O)[C@H](Cc2c[nH]c3ncccc23)NC(=O)[C@H]([C@@H](C)O)NC(=O)[C@@H]2CCCN2C(=O)[C@H](Cc2ccc(O)cc2)NC(=O)[C@H](C(C)(C)C)NC1=O [Compound 184] (Ac-C[Tle]YPT[Trp(7-aza)][Ac5c]AY[αMeV]TC-NH2; linker 1-12 via mXylylene)
5 | 1000 to 21000 | 100 to 1000 | CCC[C@@H]1NC(=O)[C@H](Cc2c[nH]c3ncccc23)NC(=O)[C@H]([C@@H](C)O)NC(=O)[C@H](Cc2c[nH]cn2)NC(=O)[C@H](Cc2ccc(O)cc2)NC(=O)[C@H](C(C)(C)C)NC(=O)CCSCc2cccc(c2)CSC[C@@H](C(N)=O)NC(=O)[C@H]([C@@H](C)O)NC(=O)[C@H](CCC)NC(=O)[C@H](Cc2ccc(O)cc2)NC(=O)[C@H](CC(=O)O)NC1=O [Compound 254] ([Mpa][Tle]YHT[Trp(7-aza)][Nva]DY[Nva]TC-NH2; linker 1-12 via mXylylene)
6 | 100 to 1000 | 100 to 1000 | CCC[C@@H]1NC(=O)[C@H](Cc2c[nH]c3ncccc23)NC(=O)[C@H]([C@@H](C)O)NC(=O)[C@H](Cc2ccncc2)NC(=O)[C@H](Cc2ccc(O)cc2)NC(=O)[C@H](C(C)(C)C)NC(=O)CCSCc2cccc(c2)CSC[C@@H](C(N)=O)NC(=O)[C@H]([C@@H](C)O)NC(=O)[C@H](CCC)NC(=O)[C@H](Cc2ccc(O)cc2)NC(=O)[C@H](CCC(=O)O)NC1=O [Compound 112] ([Mpa][Tle]Y[4Pal]T[Trp(7-aza)][Nva]EY[Nva]TC-NH2; linker 1-12 via mXylylene)
7 | 1000 to 21000 | 21000 to 50000 | CC[C@]1(C)NC(=O)[C@H](Cc2c[nH]c3ncccc23)NC(=O)[C@H]([C@@H](C)O)NC(=O)[C@@H]2CCCN2C(=O)[C@H](Cc2ccc(O)cc2)NC(=O)[C@H](C(C)(C)C)NC(=O)[C@@H](NC(C)=O)CSCc2cccc(c2)CSC[C@@H](C(N)=O)NC(=O)[C@H]([C@@H](C)O)NC(=O)[C@](C)(C(C)C)NC(=O)[C@H](Cc2ccc(O)cc2)NC(=O)[C@H](C)NC1=O [Compound 182] (Ac-C[Tle]YPT[Trp(7-aza)][Iva]AY[αMeV]TC-NH2; linker 1-12 via mXylylene)
8 | 1000 to 21000 | 1000 to 21000 | CCCC1(CCC)NC(=O)[C@H](Cc2c[nH]c3ncccc23)NC(=O)[C@H]([C@@H](C)O)NC(=O)[C@@H]2CCCN2C(=O)[C@H](Cc2ccc(O)cc2)NC(=O)[C@H](C(C)(C)C)NC(=O)[C@@H](NC(C)=O)CSCc2cccc(c2)CSC[C@H](C(N)=O)NC(=O)[C@H]([C@@H](C)O)NC(=O)[C@](C)(C(C)C)NC(=O)[C@H](Cc2ccc(O)cc2)NC(=O)[C@H](C)NC1=O [Compound 188] (Ac-C[Tle]YPT[Trp(7-aza)][Dpg]AY[αMeV]T[dC]-NH2; linker 1-12 via mXylylene)
9 | 1000 to 21000 | 1000 to 21000 | CCC[C@@H]1NC(=O)[C@H](Cc2c[nH]c3ncccc23)NC(=O)[C@H]([C@@H](C)O)NC(=O)[C@H](Cc2c[nH]cn2)NC(=O)[C@H](Cc2ccc(O)cc2)NC(=O)[C@H](C(C)(C)C)NC(=O)CCSCc2cccc(c2)CSC[C@@H](C(N)=O)NC(=O)[C@H]([C@@H](C)O)NC(=O)[C@H](CCC)NC(=O)[C@H](Cc2ccc(C(F)(F)F)cc2)NC(=O)[C@H](CCC(=O)O)NC1=O [Compound 260] ([Mpa][Tle]YHT[Trp(7-aza)][Nva]E[Phe(4-CF3)][Nva]TC-NH2; linker 1-12 via mXylylene)
10 | 1000 to 21000 | 1000 to 21000 | CCC[C@@H]1NC(=O)[C@H](Cc2c[nH]c3ncccc23)NC(=O)[C@H]([C@@H](C)O)NC(=O)[C@@H]2CCCN2C(=O)[C@H](Cc2ccc(O)cc2)NC(=O)[C@H](C(C)(C)C)NC(=O)CCSCc2cccc(c2)CSC[C@@H](C(N)=O)NC(=O)[C@H]([C@@H](C)O)NC(=O)[C@H](CCC)NC(=O)[C@H](Cc2ccc(O)cc2)NC(=O)[C@H](CCC(=O)O)NC1=O [Compound 155] ([Mpa][Tle]YPT[Trp(7-aza)][Nva]EY[Nva]TC-NH2; linker 1-12 via mXylylene)
11 | 1000 to 21000 | – | CCC[C@@H]1NC(=O)[C@H](Cc2c[nH]c3ncccc23)NC(=O)[C@H]([C@@H](C)O)NC(=O)[C@H](Cc2c[nH]cn2)NC(=O)[C@H](Cc2ccc(O)cc2)NC(=O)[C@H](C(C)(C)C)NC(=O)CCSCc2cccc(c2)CSC[C@@H](C(N)=O)NC(=O)[C@H]([C@@H](C)O)NC(=O)[C@H](CCC)NC(=O)[C@H](Cc2ccc(F)cc2)NC(=O)[C@H](CCC(=O)O)NC1=O [Compound 266] ([Mpa][Tle]YHT[Trp(7-aza)][Nva]E[Phe(4-F)][Nva]TC-NH2; linker 1-12 via mXylylene)
12 | 50000 to 100000 | – | CCC[C@@H]1NC(=O)[C@H](Cc2ccncc2)NC(=O)[C@H]([C@@H](C)O)NC(=O)[C@H](Cc2c[nH]cn2)NC(=O)[C@H](Cc2ccc(O)cc2)NC(=O)[C@H](C(C)(C)C)NC(=O)CCSCc2cccc(c2)CSC[C@@H](C(N)=O)NC(=O)[C@H]([C@@H](C)O)NC(=O)[C@H](CCC)NC(=O)[C@H](Cc2ccc(O)cc2)NC(=O)[C@H](CCC(=O)O)NC1=O [Compound 270] ([Mpa][Tle]YHT[4Pal][Nva]EY[Nva]TC-NH2; linker 1-12 via mXylylene)
13 | 50000 to 100000 | – | CCC[C@@H]1NC(=O)[C@H](Cc2c[nH]c3ncccc23)NC(=O)[C@H]([C@@H](C)O)NC(=O)[C@H](Cc2c[nH]cn2)NC(=O)[C@H](Cc2ccc(O)cc2)NC(=O)[C@H](C(C)(C)C)NC(=O)CCSCc2cccc(c2)CSC[C@@H](C(N)=O)NC(=O)[C@H]([C@@H](C)O)NC(=O)[C@H](CCC)NC(=O)[C@H](Cc2ccc3[nH]ncc3c2)NC(=O)[C@H](CCC(=O)O)NC1=O [Compound 257] ([Mpa][Tle]YHT[Trp(7-aza)][Nva]E[X8][Nva]TC-NH2; linker 1-12 via mXylylene)
14 | 1000 to 21000 | – | CCC[C@@H]1NC(=O)[C@H](Cc2c[nH]c3ncccc23)NC(=O)[C@H]([C@@H](C)O)NC(=O)[C@H](Cc2c[nH]cn2)NC(=O)[C@H](Cc2ccc(O)cc2)NC(=O)[C@H](C(C)(C)C)NC(=O)CCSCc2cccc(c2)CSC[C@@H](C(N)=O)NC(=O)[C@H]([C@@H](C)O)NC(=O)[C@H](CCC)NC(=O)[C@H](Cc2ccccc2)NC(=O)[C@H](CCC(=O)O)NC1=O [Compound 256] ([Mpa][Tle]YHT[Trp(7-aza)][Nva]EF[Nva]TC-NH2; linker 1-12 via mXylylene)
15 | 50000 to 100000 | – | CCC[C@H](NC(C)=O)C(=O)N[C@H]1CSCc2cccc(c2)CSC[C@@H](C(N)=O)NC(=O)[C@H]([C@@H](C)O)NC(=O)[C@H](CCC)NC(=O)[C@H](Cc2ccc(O)cc2)NC(=O)[C@H](C)NC(=O)[C@H](CCC)NC(=O)[C@H](Cc2c[nH]c3ncccc23)NC(=O)[C@H]([C@@H](C)O)NC(=O)[C@H](Cc2cnc[nH]2)NC(=O)[C@H](Cc2ccc(O)cc2)NC(=O)[C@H](C(C)(C)C)NC1=O [Compound 258] (Ac-[Nva]C[Tle]YHT[Trp(7-aza)][Nva]AY[Nva]TC-NH2; linker 2-13 via mXylylene)
